Laboratory results from patent publication US12370463B2, “Continuous-flow, well mixed, microfluidic crystallization device for screening polymorphs, morphologies and crystallization kinetics at controlled supersaturation” (THE BOARD OF TRUSTEES OF THE UNIVERSITY OF ILLINOIS, priority 2019, dated 2025).

Columns and labels:
Type in all cases: physicochemical
[1] = Polymorph and morphology screening of L-histidine by antisolvent crystallization in the continuous-flow multi-well microfluidic mixer; conditions: for polymorphic form obtained: water solvent, ethanol antisolvent, room temperature
Description: The L-histidine crystals were formed at room temperature with water as the solvent and ethanol as the antisolvent, wherein the microfluidic system was configured to have a cyclone-shaped geometry.
The multi-well microfluidic mixer device was placed on a temperature-controlled stage of the optical microscope (Olympus BX53M, Olympus America Inc.). A saturated solution of L-histidine in water was prepared for the solubility measurement experiment at room temperature.
Eight different syringes were filled with solutions of L-histidine in the water at known concentrations as the source of solvent streams and the other eight syringes were filled with ethanol as antisolvent streams. Syringes were then inserted into 4 programmed syringe pumps (NE-4000, New Era Pump System Inc.). Inlets were connected to one-way microfluidic check valves to prevent backflow inside the channels.
All the microscopic images were recorded with a built-in color camera (LC 30, Olympus America Inc.) using reflected light mode. Capturing time-lapsed images and the growth rate analysis was performed for different samples. Further, these images were processed through MATLAB (MATLAB 9.3, The MathWorks Inc.) for form percentage measurements. L-histidine has two polymorphic form with different crystal habits reported in the literature.
After benchmarking the merged inlet geometry and observing the consistency between the two discussed geometry, the multiwell screening system 10 generally shown in FIG. 4 and using the eight microfluidic chambers 100 having the merged inlet geometry of FIG. 5 was used to perform a parallel screening of L-histidine.
(§1) With eight different microfluidic mixers accommodated on a single chip, eight different supersaturations were studied for polymorph and morphology screening of L-histidine. The results of the continuous flow microfluidic crystallizer were further compared with a batch 96 well plate system with single injection of the solutions in a 96 well plate system. Supersaturation adjustments were done by either changing the initial concentration of the API solution and maintaining a constant ratio for the solvent and antisolvent (1:1) or varying the ratios of two mixing streams for constant initial concentration of API in the solvent. Ratios of solvent and antisolvent were controlled by controlling the flowrates of each stream, respectively.
L-histidine with the two polymorphic forms of form A (stable) and form B (metastable) was selected for the parallel screening. The disclosed microfluidic system provides for the instantaneous, in-situ analysis of the polymorphic change. The studied supersaturations were divided into three regions of low, medium and high supersaturations to understand the effect of the supersaturation ratio on the polymorphic form ratios. […]

[2] = Polymorph and morphology screening of L-histidine in a batch 96 well plate, single injection
From the text: as §1
A low supersaturation degree existed in the wells D, C, and H, where supersaturation was respectively 1.74, 1.14 and 1.15. For a medium range of the supersaturations, well B with S=2.28 and well G with S=2 were evaluated. The other three remaining wells, A, E and F represents the high supersaturation range with S=2.57, […], 3.14 respectively. Identical supersaturations for wells A to H were applied to a batch 96 well plate and optical images were collected after 5 and 30 minutes and shown in the micrographs A2 to H2 and A4 to H4.
In order to measure the growth rate for polymorphs of L-histidine at different supersaturations, time-lapsed images of each sample were taken each 60, 120 or 300 seconds after the crystals were first observed within the crystallization zone. […] To confirm the crystal faces, the crystallography of the polymorph B was imported into WINXMORPH and 3 final models were simulated for existing form B in the samples. The growth rate measurements of the form A crystals, however was done by measuring the distance between the two longest faces due to the significant aspect ratio of the two dominant faces of this crystal form. Using MATLAB (MATLAB 9.3, The MathWorks Inc.) the ratio of the polymorphic form A was measured for the eight samples in both continuous flow crystallizer as well as the batch 96 well plate system. […]

[3] = Antisolvent crystallization of o-ABA in the microfluidic mixer, merged and separated inlet designs
From the text: The crystals were formed at room temperature using ethanol as solvent and water as antisolvent. The microfluidic system was configured to have a cyclone-shaped geometry.
The microfluidic device was placed on the temperature-controlled stage of the optical microscope (Olympus BX53M, Olympus America Inc.). The o-ABA dissolved in ethanol and pure water was pumped separately into the microfluidic device using programmed syringe pumps (NE-4000, New Era Pump System Inc.). The flow rates of the o-ABA-ethanol solution and pure water were adjusted to achieve the desired supersaturations (S=1.2, 1.9, and 2.5), which were determined using the solubility curve of form I of o-ABA crystals. The inlets of the microfluidic device were connected with one-way check valves to avoid backflow from the mixer. The time-lapse images of the crystallization compartment were recorded using a built-in color camera (LC 30, Olympus America Inc.) of the optical microscope under the reflected light mode, which are also processed using MATLAB (MATLAB 9.3, The MathWorks Inc.) to measure growth rates and particle size distribution. The polymorphs of o-ABA at different supersaturations (S=1.2, 1.9, and 2.5) were identified using (i) distinct morphological features, such as form I having a prismatic morphology whereas form II has a needle-like morphology, and (ii) X-ray diffraction (XRD) experiments on a Bruker DISCOVER diffractometer with Cu Kα radiation.
The antisolvent crystallization of o-ABA was studied with a merged inlet design (FIG. 5) and results were compared with a separated inlet design. FIG. 11, panels A-H show the micrographs of the samples obtained from antisolvent crystallization of o-ABA in the ethanol-water mixture at two different supersaturations (S=1.2 and S=1.9). The relative relationship between the form and morphology of o-ABA allows for instant detection of each polymorph with the in-situ analysis.

Q: For `N[C@@H](Cc1c[nH]cn1)C(=O)O` [L-histidine], which crystal size distribution ([1]; continuous microfluidic mixer) is on record?
A: more uniform and have a narrower size distribution

Q: What about the “growth rates of crystals at similar supersaturation” value ([1]; continuous microfluidic mixer, time-lapsed images) of the same compound?
A: almost constant

Q: And the polymorphic form obtained ([1]; supersaturations below 2.3 (low and medium ranges))?
A: a mixture of forms A and B

Q: What about the polymorphic form obtained ([1]; supersaturations higher than 2.3) of the same compound?
A: only crystallizes in form B

Q: And the crystal size distribution ([2]; batch 96 well plate)?
A: wide range of size distribution

Q: What about the polymorphic form obtained ([2]; high supersaturation, batch 96 well plate) of the same compound?
A: a mixture of both polymorphic forms

Q: And the “growth rates of crystals over the time of the measurements” value ([2]; identical samples in the batch system)?
A: decrease significantly

Q: With `Nc1ccccc1C(=O)O` [o-ABA, o-aminobenzoic acid] as the compound, how does the polymorphic form obtained ([3]; S=1.9, merged inlets geometry) read?
A: metastable form II was obtained

Q: And the “polymorphic transformation during the experiment” value ([3]; S=1.9, merged inlets geometry, constant supersaturation)?
A: did not transform to the stable form

Q: What about the polymorphic form obtained ([3]; lower supersaturations, ethanol-water mixture) of the same compound?
A: crystals of polymorphic form I are obtained
